With `O=C(O)c1ccccc1` the solubility (mole fraction) (in chloroform, 278.15 K) was 0.074, the solubility (mole fraction) (in chloroform, 283.15 K) was 0.086 and the solubility (mole fraction) (in chloroform, 293.15 K) was 0.114. The solubility (mole fraction) (in chloroform, 303.15 K) was 0.151, the solubility (mole fraction) (in chloroform, 313.15 K) was 0.196 and the solubility (mole fraction) (in chloroform, 323.15 K) was 0.253. For the same compound, the solubility (mole fraction) (in cyclohexane, 283.15 K) was 0.006, the solubility (mole fraction) (in cyclohexane, 293.15 K) was 0.009 and the solubility (mole fraction) (in cyclohexane, 303.15 K) was 0.015. The solubility (mole fraction) (in cyclohexane, 313.15 K) was 0.025, the solubility (mole fraction) (in cyclohexane, 323.15 K) was 0.039 and the solubility (mole fraction) (in ethanol, 278.15 K) was 0.128. The solubility (mole fraction) (in ethanol, 283.15 K) was 0.139, the solubility (mole fraction) (in ethanol, 293.15 K) was 0.166 and the solubility (mole fraction) (in ethanol, 303.15 K) was 0.196. The solubility (mole fraction) (in ethanol, 313.15 K) was 0.234, the solubility (mole fraction) (in ethanol, 323.15 K) was 0.276 and the solubility (mole fraction) (in n-heptane, 278.15 K) was 0.005. The solubility (mole fraction) (in n-heptane, 283.15 K) was 0.006, the solubility (mole fraction) (in n-heptane, 293.15 K) was 0.01 and the solubility (mole fraction) (in n-heptane, 303.15 K) was 0.015. The solubility (mole fraction) (in n-heptane, 313.15 K) was 0.022, the solubility (mole fraction) (in n-heptane, 323.15 K) was 0.033 and the solubility (mole fraction) (in n-pentane, 278.15 K) was 0.004. The solubility (mole fraction) (in n-pentane, 283.15 K) was 0.005, the solubility (mole fraction) (in n-pentane, 293.15 K) was 0.007 and the solubility (mole fraction) (in n-pentane, 303.15 K) was 0.011. The solubility (mole fraction) (in toluene, 278.15 K) was 0.035, the solubility (mole fraction) (in toluene, 283.15 K) was 0.043 and the solubility (mole fraction) (in toluene, 293.15 K) was 0.062. The solubility (mole fraction) (in toluene, 303.15 K) was 0.089, the solubility (mole fraction) (in toluene, 313.15 K) was 0.128 and the solubility (mole fraction) (in toluene, 323.15 K) was 0.178.

— BigSolDB 2.1
